The structures appear in SMILES notation.

Common to all, as to type: cell-based, human
Test [1] concerns MM.1S cells. Description: MTS CellTiter 96 cell proliferation assay, MM.1S. As to conditions: for IC50: Homo sapiens, MM1.S, read-out: Estimated IC50; for IC50 / Estimated IC50: MTS cell proliferation assay; for decreasing cell proliferation: 0.1-10 μM, MTS assay, FIG. 1, compared with 8-amino adenosine. The procedure:
Cell viability was assessed by MTS assay as follows.
The MTS CellTiter 96 assay is a colorimetric method to assess the number of viable cells based on the conversion of a tetrazolium compound (MTS) to a formazan product by the mitochondrial dehydrogenase enzyme of the cells. This assay is used to determine the number of viable cells remaining following a drug treatment in comparison to the number of viable cells that are only treated with the drug vehicle (control cells). The amount of formazan product in the control cells is normalized to 100% and the amount of formazan in the drug treated cells is expressed as a percentage of control. This is used to generate dose response curve and estimate the drug concentration that produced a 50% decrease in the number of viable cells.

The test system of test [2] is acute leukemia cell lines (THP-1, K562, Kasumi-1, and U937). Nature of the test: Inhibition of viability of acute leukemia cell lines. To be noted: THP-1, K562, Kasumi-1, U937; FIGS. 11-14. The procedure:
Compounds 381, 383, 409 (as test compounds) and Compound 501 (as a negative control) were administered to a variety of acute leukemia cell lines (THP-1. K562, Kasumi-1, and U937) in order to test their ability to inhibit cell growth as compared to 8-amino adenosine (8NH2-Ado) and 8-chloro adenosine (8Cl-Ado) (as positive controls) as in the previous Examples.

Test [3] deals with U937 cell lines. Description: Immunoblot of PARP cleavage and cleaved caspase 3. To be noted: U937 cell lysates, FIG. 17. The procedure: FIG. 17. Immunoblot of cell lysates from U937 cell lines treated with Compounds 381, 383, 409 (as test compounds) and Compound 501 (as a negative control) as compared to 8-amino adenosine (8NH2-Ado) and 8-chloro adenosine (8Cl-Ado) (as positive controls). The impact of the compounds on proteins associated with cell death was assessed via performing an immunoblot. (See FIG. 17). PARP cleavage indicated activation of the caspase cascade and cell death by induction of apoptosis. Similarly detection of cleaved caspase 3 indicated activation of caspase activity and cell death by apoptosis. GAPDH was included as a loading control to indicate approximately equal loading of protein.
In general terms: A western blot detects proteins with antibodies after separation by electrophoresis.

Usually IC50 stands for the concentration needed to halve the response being measured. Take `FC(F)(F)c1cn(Cc2ccccc2)c2ncnc(Cl)c12` [NUCC-0000315]: the IC50 in test [1] was 3 µM.

As for `Cc1cn(CC2CCN(C(=O)OC(C)(C)C)CC2)c2ncnc(Cl)c12` [NUCC-0054036], in test [1], the IC50 is 2 µM. Regarding `Cc1cn(CC2CCN(S(C)(=O)=O)CC2)c2ncnc(Cl)c12` [NUCC-0054040], the IC50 in test [1] was 3 µM. As to `COc1cccc(Cn2c(C)c(C)c3c(Cl)ncnc32)c1` [NUCC-0000409], the IC50 in test [1] is 1.5 µM. Further, the cell viability result in test [2] is recorded as “reduce cell viability significantly”. With `CS(=O)(=O)N1CCC(Cn2ccc3c(Cl)ncnc32)CC1` [NUCC-0000578], the IC50 in test [1] is 5 µM. As to `Nc1nc(Cl)c2c(C(F)(F)F)cn(CC3CCNCC3)c2n1` [NUCC-0000570], in test [1], the IC50 was 3 µM. Consider `Cc1ncnc2c1c(C(F)(F)F)cn2CC1CCN(C(=O)OC(C)(C)C)CC1` [NUCC-0000482], for which, in test [1], the decreasing cell proliferation entry is listed as “not effective in decreasing cell proliferation” and the “Estimated IC50” value was “In- active”.

Turning to `FC(F)(F)c1cn(CC2CCNCC2)c2ncncc12` [NUCC-0000470], in test [1], the IC50 is 10 µM. Turning to `CS(=O)(=O)N1CCC(Cn2cc(C(F)(F)F)c3c(Cl)nc(N)nc32)CC1` [NUCC-0000576], in test [1], the IC50 was 3 µM. Turning to `Cc1c(C)n(CCN2CCOCC2)c2ncnc(Cl)c12` [NUCC-0000413], the IC50 in test [1] is 5 µM. On to `Cc1ncnc2c1c(C(F)(F)F)cn2CC1CCNCC1` [NUCC-0000501], for which, in test [1], the decreasing cell proliferation result is “not effective in decreasing cell proliferation” and the “Estimated IC50” value was “In- active”.

As for `Clc1ncnc2c1c1c(n2Cc2ccccc2)CCCC1` [NUCC-0000308], the IC50 in test [1] is 10 µM. With `Fc1ccc(Cn2c3c(c4c(Cl)ncnc42)CCCC3)cc1` [NUCC-0000412], in test [1], the IC50 is 2.5 µM. On the same count and under the same terms, in the case of `COCCn1c(C)c(C)c2c(Cl)ncnc21` [NUCC-0000361] it was 10 µM. `FC(F)(F)c1cc2c(Cl)ncnc2n1CC1CCNCC1` [NUCC-0054150]: in test [1], the IC50 was above 10 µM.

Take `CC(C)(C)OC(=O)N1CCC(Cn2ccc3c(Cl)nc(Cl)nc32)CC1` [NUCC-0000571]: in test [1], the 50% inhibitory concentration (IC50) is 5 µM. Take `Cc1c(C)n(Cc2ccccc2)c2ncnc(Cl)c12` [NUCC-0000280]: the IC50 in test [1] is 5 µM. For the compound `Cc1c(C)n(CC2CCCCC2)c2ncnc(Cl)c12` [NUCC-0000359], the half-maximal inhibitory concentration (IC50) in test [1] was 10 µM.

Regarding `CC(=O)N1CCC(Cn2ccc3c(Cl)nc(Cl)nc32)CC1` [NUCC-0000595], the IC50 in test [1] is 3 µM.

For the compound `FC(F)(F)c1cn(Cc2cccnc2)c2ncnc(Cl)c12` [NUCC-0000326], the IC50 in test [1] was 3 µM. Take `COc1cccc(Cn2cc(C(F)(F)F)c3c(Cl)ncnc32)c1` [NUCC-0054037]: in test [1], the IC50 is 2 µM. For the compound `Cc1c(C)n(Cc2ccc(F)cc2)c2ncnc(N)c12` [NUCC-0000375], the IC50 in test [1] is 10 µM. The same measure, in the same setting: under `Cc1c(C)n(Cc2ccc(F)cc2)c2ncnc(Cl)c12` [NUCC-0000360] stands 7 µM. On the same count and under the same terms, under `FC(F)(F)c1c[nH]c2ncnc(Cl)c12` [NUCC-0054043] stands 7 µM; under `Cc1c(C)n(Cc2ccco2)c2ncnc(Cl)c12` [NUCC-0000363], 10 µM. On to `CS(=O)(=O)N1CCC(Cn2cc(C(F)(F)F)c3c(Br)ncnc32)CC1` [NUCC-0000598], for which the IC50 in test [1] is 2 µM. As to `Cc1ncnc2c1cc(C)n2C1O[C@H](CO)[C@@H](O)[C@H]1O` (stereo partly shown) [NUCC-0000477], in test [1], the IC50 was 8 µM.

As for `CS(=O)(=O)N1CCC(Cn2ccc3c(Cl)nc(Cl)nc32)CC1` [NUCC-0000577], in test [1], the IC50 is 5 µM. In the case of `NC(=O)N1CCC(Cn2cc(C(F)(F)F)c3c(Cl)ncnc32)CC1` [NUCC-0000469], in test [1], the IC50 was 10 µM. With `FC(F)(F)c1cn(CCN2CCCC2)c2ncnc(Cl)c12` [NUCC-0000358], the IC50 in test [1] was 3 µM. For the compound `O=C(N1CCC(Cn2cc(C(F)(F)F)c3c(Cl)ncnc32)CC1)C(F)(F)F` [NUCC-0000593], in test [1], the IC50 was 5 µM.

For `FC(F)(F)c1cn(Cc2ccncc2)c2ncnc(Cl)c12` [NUCC-0000327], in test [1], the IC50 was 5 µM. With `Cc1cn(CC2CCNCC2)c2ncnc(Cl)c12` [NUCC-0054039], the IC50 in test [1] was 1 µM. As for `FC(F)(F)c1cn(CC2CCOCC2)c2ncnc(Cl)c12` [NUCC-0000329], the IC50 in test [1] is 3 µM. On to `Nc1ncnc2c1nc(N)n2[C@@H]1O[C@H](CO)[C@@H](O)[C@H]1O` [Compound 8-NH2-Ado, 8-amino adenosine], for which the “induction of apoptosis (PARP cleavage, cleaved caspase 3)” value in test [3] is “Induction of apoptosis was observed”.

Take `Fc1ccc(Cn2cc(C(F)(F)F)c3c(Cl)ncnc32)cc1` [NUCC-0000325]: in test [1], the IC50 is 5 µM.

`Clc1nc(Cl)c2ccn(CC3CCNCC3)c2n1` [NUCC-0000575]: in test [1], the IC50 was 3 µM. For `CS(=O)(=O)N1CCC(Cn2c(C(F)(F)F)cc3c(Cl)ncnc32)CC1` [NUCC-0054151], in test [1], the IC50 is above 10 µM. For `COc1ccc(Cn2cc(C(F)(F)F)c3c(Cl)ncnc32)cc1` [NUCC-0054038], the IC50 in test [1] is 2 µM. With `Cc1c(C)n(Cc2ccccc2)c2ncnc(N)c12` [NUCC-0000362], the IC50 in test [1] was 10 µM. Regarding `CC(C)(C)OC(=O)N1CCC(Cn2cc(C(F)(F)F)c3c(Cl)ncnc32)CC1` [NUCC-0000357], in test [1], the IC50 was 1.5 µM.

With `OCCOCn1cc(C(F)(F)F)c2c(Cl)ncnc21` [NUCC-0050715], the IC50 in test [1] is 5 µM.

For `Nc1ncnc2c1nc(Cl)n2[C@@H]1O[C@H](CO)[C@@H](O)[C@H]1O` [Compound 8-Cl-Ado, 8-chloro adenosine], in test [3], the “induction of apoptosis (PARP cleavage, cleaved caspase 3)” value was “Induction of apoptosis was observed”.

Values taken from patent publication US9981968B2, “Substituted pyrrolo[2,3-d]pyrimidines for the treatment of cancer and proliferative disorders” (Northwestern University, priority 2013, dated 2018).
